How the values were obtained:
BDCA3 DC [1] = test: Test of promoting cytokine production by BDCA3 DC (cytometric beads array); assay type: cell-based, human; conditions: lactic acid bacteria count/DC count=100
Procedure: Poly IC or the lactic acid bacteria suspension prepared by using strain KK221 according to Example 1, and BDCA3 DC were prepared and co-cultured so that lactic acid bacteria count/DC count=100, and the measurement of the activity of promoting production of various cytokines was carried out.
Note that each of TNFα, IL-10, IL-1β, IL-6, and IL-12p70 was measured by using cytometric beadsarray (CBA; Becton, Dickinson and Company).

BDCA3 DC [2] = test: Test of promoting interferon λ3 production by BDCA3 DC co-cultured with lactic acid bacteria suspension; assay type: cell-based, human; conditions: 10 μM chloroquine, 24 hours
Procedure: First, an MRS medium containing 10% (w/v) salt was inoculated with strain KK221 so that a concentration became 1×10^7 cells/ml, and therefore a stock solution of lactic acid bacteria was prepared. The stock solution of lactic acid bacteria was statically cultured at 30° C. for 48 to 72 hours, and then subjected to a boiling and pasteurization treatment at 95° C. for 10 minutes, and therefore a pasteurization-treated culture solution was prepared. […]
Activity of promoting interferon λ production by the prepared lactic acid bacteria suspension was evaluated as follows by using dendritic cells collected and prepared from the peripheral blood of a non-virus infected healthy subject. […]
The number of cells of each isolated DC was measured, and a cell stock solution was prepared using an IMDM medium (GIBCO) containing 25 mM D-glucose, 25 mM HEPES, and […] so that a concentration became 5×10^4 cells/ml. […]
Using the recovered culture supernatant, interferon λ3 was measured by a chemiluminescent enzyme immunoassay method according to a method described in a document of Sugiyama, et al. [Sugiyama M, et al. Hepatol Res. 42 (11): 1089-1099, 2012]. […]

Substance: Poly IC
- production of various cytokines (TNFα, IL-10, IL-1β, IL-6, IL-12p70, interferon α, interferon λ) by BDCA3 DC (BDCA3 DC [1]): nonspecifically promoted production of TNFα, interferon α, IL-6, and the like in addition to interferon λ (IL28B)
- activity of promoting interferon λ production according to addition of chloroquine (BDCA3 DC [2]): deteriorated
